Test results reported in US10774102B2, “Galactoside inhibitor of galectins” (Galecto Biotech AB, priority 2015, dated 2020).

What follows are compounds tested against galectin-3 (Homo sapiens (Human), UniProt P17931) (assay: Fluorescence anisotropy assay of galectin-3 affinity (compound inhibits galectin binding to a fluorescein tagged saccharide probe)). Details: high affinity probe, 50 nM galectin-3, 100 nM albumin.
Sequence of galectin-3 (P17931 whole entry): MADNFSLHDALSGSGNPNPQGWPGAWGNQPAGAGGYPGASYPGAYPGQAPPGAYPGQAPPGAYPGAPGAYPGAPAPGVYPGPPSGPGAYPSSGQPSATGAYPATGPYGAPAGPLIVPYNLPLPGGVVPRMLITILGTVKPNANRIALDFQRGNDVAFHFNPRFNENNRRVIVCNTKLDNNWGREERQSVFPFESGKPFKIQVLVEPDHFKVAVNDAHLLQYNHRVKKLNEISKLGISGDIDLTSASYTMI
Protocol: 100 nM albumin was included as a carrier to prevent protein loss at such low concentration of galectin.
With `OC[C@H]1O[C@H](SC2CCCCC2)[C@H](O)[C@@H](n2cc(-c3cc(F)c(F)c(F)c3)nn2)[C@H]1O` [Example 35, Cyclohexyl 3-deoxy-3-[4-(3,4,5-trifluorophenyl)-1H-1,2,3-triazol-1-yl]-1-thio-α-D-galactopyranoside] the Kd was 440 nM.
`CN(C)c1cccc2cc(S(=O)(=O)[C@H]3OC(CO)[C@H](O)[C@H](n4cc(-c5cc(F)c(F)c(F)c5)nn4)C3O)ccc12` (stereo partly drawn) [Example 95, 5-Dimethylamino-naphtalen-2-yl 3-deoxy-3-[4-(3,4,5-trifluorophenyl)-1H-1,2,3-triazol-1-yl]-α-D-galactopyranosyl sulfone] gave a Kd of 960 nM.
Work on `[O-][S+](c1ccc(Cl)c(Cl)c1)[C@H]1O[C@H](CO)[C@H](O)[C@H](n2cc(-c3cc(F)c(F)c(F)c3)nn2)[C@H]1O` (stereo partly drawn) [Example 24, 3,4-Dichlorophenyl 3-deoxy-3-[4-(3,4,5-trifluorophenyl)-1H-1,2,3-triazol-1-yl]-α-D-galactopyranosyl sulfoxide] yielded a Kd of 10 nM.
`OC[C@H]1O[C@H](Sc2cccc(OC(F)(F)F)c2)[C@H](O)[C@@H](n2cc(-c3cc(F)c(F)c(F)c3)nn2)[C@H]1O` [Example 20, 3-(Trifluoromethoxy)phenyl 3-deoxy-3-[4-(3,4,5-trifluorophenyl)-1H-1,2,3-triazol-1-yl]-1-thio-α-D-galactopyranoside] was tested, and the Kd was 500 nM.
With `OCC1O[C@H](Sc2ccccn2)C(O)[C@@H](n2cc(-c3cc(F)c(F)c(F)c3)nn2)[C@H]1O` (stereo partly drawn) [Example 21, 2-Pyridyl 3-deoxy-3-[4-(3,4,5-trifluorophenyl-1H-1,2,3-triazol-1-yl]-)-1-thio-α-D-galactopyranoside] the Kd was 510 nM.
`[O-][S+](c1ccc(Cl)c(Cl)c1)[C@H]1O[C@H](CO)[C@H](O)[C@H](n2cc(-c3c(F)c(F)c(F)c(F)c3F)nn2)[C@H]1O` (stereo partly drawn) [Example 42, 3,4-Dichlorophenyl 3-deoxy-3-[4-(2,3,4,5,6-pentafluorophenyl)-1H-1,2,3-triazol-1-yl]-α-D-galactopyranosyl sulfoxide] was tested, and the Kd was 2 nM.
`Cc1cccc(S[C@H]2O[C@H](CO)[C@H](O)[C@H](n3cc(-c4cc(F)c(F)c(F)c4)nn3)[C@H]2O)c1` [Example 13, 3-Methylphenyl 3-deoxy-3-[4-(3,4,5-trifluorophenyl)-1H-1,2,3-triazol-1-yl]-1-thio-α-D-galactopyranoside] showed a Kd of 240 nM.
Work on `OC[C@H]1O[C@H](Sc2cccc(Br)c2)[C@H](O)[C@@H](n2cc(-c3cc(F)c(F)c(F)c3)nn2)[C@H]1O` [Example 2, 3-Bromophenyl 3-deoxy-3-[4-(3,4,5-trifluorophenyl)-1H-1,2,3-triazol-1-yl]-1-thio-α-D-galactopyranoside] yielded a Kd of 37 nM.
Compound `COc1ccc(S[C@H]2OC(CO)[C@H](O)[C@H](n3cc(-c4cc(F)c(F)c(F)c4)nn3)C2O)cc1` (stereo partly drawn) [Example 7, 4-Methoxyphenyl 3-deoxy-3-[4-(3,4,5-trifluorophenyl)-1H-1,2,3-triazol-1-yl]-1-thio α-D-galactopyranoside] has a Kd of 410 nM.
`OC[C@H]1O[C@H](Sc2cccc(O)c2)[C@H](O)[C@@H](n2cc(-c3cc(F)c(F)c(F)c3)nn2)[C@H]1O` [Example 38, 3-Hydroxy-phenyl 3-deoxy-3-[4-(3,4,5-trifluorophenyl)-1H-1,2,3-triazol-1-yl]-1-thio-α-D-galactopyranoside] was tested, and the Kd was 490 nM.
With `OCC1O[C@H](SCCc2ccccc2)C(O)[C@@H](n2cc(-c3cc(F)c(F)c(F)c3)nn2)[C@H]1O` (stereo partly drawn) [Example 40, 2-Phenethyl 3-deoxy-3-[4-(3,4,5-trifluorophenyl)-1H-1,2,3-triazol-1-yl]-1-thio-α-D-galactopyranoside] the Kd was 480 nM.
With `CCOC(=O)c1cn([C@@H]2[C@@H](O)[C@@H](Sc3ccc(Cl)c(Cl)c3)O[C@H](CO)[C@@H]2O)nn1` [Example 97, 3,4-Dichlorophenyl 3-deoxy-3-[4-(ethoxycarbonyl)-1H-1,2,3-triazol-1-yl]-1-thio-α-D-galactopyranoside] the Kd was 3500 nM.
